Reference: the supplement of paper PMC10307832

Experiments:
Test in all cases: relative viability (nuclei count vs DMSO), 5 days (fraction); higher = more cells survive
AZD5582 + Olaparib = compound: C[C@@H](C(=O)N[C@@H](C1CCCCC1)C(=O)N2CCC[C@H]2C(=O)N[C@@H]3[C@@H](CC4=CC=CC=C34)OCC#CC#CCO[C@@H]5CC6=CC=CC=C6[C@@H]5NC(=O)[C@@H]7CCCN7C(=O)[C@H](C8CCCCC8)NC(=O)[C@H](C)NC)NC [AZD5582] + O=C(c1cc(Cc2n[nH]c(=O)c3ccccc23)ccc1F)N1CCN(C(=O)C2CC2)CC1 [Olaparib] (partner 8 µM)
Outline: (§1)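 A single step with final 0.05% Triton X-100, 1% formaldehyde and 1 ug/ml Hoechst fixed the cells and stained nuclei 5 days after treatment. Lung cancer cell lines in 1536-well plates had been treated by pin tool the day after seeding with one drug alone or a fixed anchor-drug dose plus five library-drug doses (not always all listed) in √10 steps, and nuclei were counted on 4× images. Relative viability is the ratio of nuclei in treated wells to nuclei in vehicle wells, taken as the median of duplicate plates.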

AZD5582 + Foretinib = compound: C[C@@H](C(=O)N[C@@H](C1CCCCC1)C(=O)N2CCC[C@H]2C(=O)N[C@@H]3[C@@H](CC4=CC=CC=C34)OCC#CC#CCO[C@@H]5CC6=CC=CC=C6[C@@H]5NC(=O)[C@@H]7CCCN7C(=O)[C@H](C8CCCCC8)NC(=O)[C@H](C)NC)NC [AZD5582] + COc1cc2c(Oc3ccc(NC(=O)C4(C(=O)Nc5ccc(F)cc5)CC4)cc3F)ccnc2cc1OCCCN1CCOCC1 [Foretinib] (partner 0.25 µM)
Outline: as §1

Temozolomide + Foretinib = compound: Cn1nnc2c(C(N)=O)ncn2c1=O [Temozolomide] + COc1cc2c(Oc3ccc(NC(=O)C4(C(=O)Nc5ccc(F)cc5)CC4)cc3F)ccnc2cc1OCCCN1CCOCC1 [Foretinib] (partner 0.25 µM)
Outline: as §1

AZD5582 + Lapatinib = compound: C[C@@H](C(=O)N[C@@H](C1CCCCC1)C(=O)N2CCC[C@H]2C(=O)N[C@@H]3[C@@H](CC4=CC=CC=C34)OCC#CC#CCO[C@@H]5CC6=CC=CC=C6[C@@H]5NC(=O)[C@@H]7CCCN7C(=O)[C@H](C8CCCCC8)NC(=O)[C@H](C)NC)NC [AZD5582] + CS(=O)(=O)CCNCc1ccc(-c2ccc3ncnc(Nc4ccc(OCc5cccc(F)c5)c(Cl)c4)c3c2)o1 [Lapatinib] (partner 2 µM)
Outline: as §1

AZD5582 + Pictilisib = compound: C[C@@H](C(=O)N[C@@H](C1CCCCC1)C(=O)N2CCC[C@H]2C(=O)N[C@@H]3[C@@H](CC4=CC=CC=C34)OCC#CC#CCO[C@@H]5CC6=CC=CC=C6[C@@H]5NC(=O)[C@@H]7CCCN7C(=O)[C@H](C8CCCCC8)NC(=O)[C@H](C)NC)NC [AZD5582] + CS(=O)(=O)N1CCN(Cc2cc3nc(-c4cccc5[nH]ncc45)nc(N4CCOCC4)c3s2)CC1 [Pictilisib] (partner 1 µM)
Outline: as §1

Cell Line: NCI-H1703
- relative viability (AZD5582 + Olaparib; first compound 0.005 µM): 0.413
- relative viability (AZD5582 + Olaparib; first compound 0.01581 µM): 0.487
- relative viability (AZD5582 + Olaparib; first compound 0.05 µM): 0.54
- relative viability (AZD5582 + Foretinib; first compound 0.005 µM): 0.412
- relative viability (AZD5582 + Foretinib; first compound 0.01581 µM): 0.376
- relative viability (AZD5582 + Foretinib; first compound 0.05 µM): 0.372
- relative viability (Temozolomide + Foretinib; first compound 0.2 µM): 0.297
- relative viability (Temozolomide + Foretinib; first compound 0.6325 µM): 0.35
- relative viability (Temozolomide + Foretinib; first compound 2 µM): 0.401
- relative viability (Temozolomide + Foretinib; first compound 6.325 µM): 0.281
- relative viability (Temozolomide + Foretinib; first compound 20 µM): 0.374
- relative viability (AZD5582 + Lapatinib; first compound 0.001581 µM): 0.815
- relative viability (AZD5582 + Lapatinib; first compound 0.005 µM): 0.691
- relative viability (AZD5582 + Lapatinib; first compound 0.01581 µM): 1.16
- relative viability (AZD5582 + Lapatinib; first compound 0.05 µM): 0.681
- relative viability (AZD5582 + Pictilisib; first compound 0.005 µM): 0.255
- relative viability (AZD5582 + Pictilisib; first compound 0.01581 µM): 0.291
- relative viability (AZD5582 + Pictilisib; first compound 0.05 µM): 0.251
